Paper PMC12388496, “Discovery of (E)-1,3-Diphenyl-2-Propen-1-One Derivatives as Potent and Orally Active NLRP3 Inflammasome Inhibitors for Colitis” (Molecules, 2025)

Columns and labels:
[1] = system: IL-1β secretion in BMDM cells (NLRP3 inflammasome); assay: ELISA of IL-1β secretion in LPS/nigericin-treated BMDM cells; type: cell-based; settings: Mus musculus
Protocol: When L929 cells reach the logarithmic phase, collect the cell supernatant. Filter the supernatant using a 0.22 μm filter and store it at −20 °C for future use. The 7-week-old C57BL/6 mice were selected as the source of primary bone marrow macrophages. The mice were euthanized using the cervical dislocation method. The ends of the femurs were cut, and the bone marrow was flushed into a 15 mL centrifuge tube using a 5 mL syringe. Once all the bone marrow was collected, an appropriate amount of red blood cell lysis buffer was added to the centrifuge tube. The mixture was incubated for 3–5 min, with repeated pipetting to thoroughly lyse the red blood cells. The cells were then centrifuged and collected. Add 30–40% L929 cell supernatant or M-CSF stimulatory factor to the culture dish. Culture the cells in a cell incubator at 37 °C with 5% CO2. Observe the cell condition daily, and once most cells have adhered to the surface, proceed with subsequent experiments.
Inoculate 1.0 × 10^5 BMDMs cells per well into a 96 well plate and culture overnight. Stimulate the cells with lipopolysaccharide (LPS) at a concentration of 0.2 μg/mL for 3 h, then add different concentrations of the test compounds and incubate for 30 min. Finally, add Nigericin at a concentration of 10 μM to continue the induction for 30 min. Collect the cell supernatant and measure the IL-1β secretion level in the supernatant using an ELISA kit, following the instructions provided, and calculate the IC50 value based on the relevant calculations. To ensure the accuracy and reliability of the experimental results, all experiments were repeated three times, with each experiment performed independently.

[2] = system: NLRP3 inflammasome; assay: Western blot of NLRP3 inflammasome proteins in BMDMs; type: cell-based, mouse; settings: BMDM, LPS and Nigericin
Protocol: To further investigate the potential molecular mechanisms of compound F14, an in vitro inflammation model was constructed using BMDM cells.
Inoculate BMDMs cells into a 6-well plate with 4-6 × 10^6 cells per well and culture overnight. Pre-treat with LPS (200 ng/mL) for 3 h, then treat with different concentrations of compound F14 for 30 min, and add Nigericin (10 µM) to activate BMDMs for 30 min. Add RIPA (Beyotime Biotechnology, Shanghai, China) for lysis. Select SDS-PAGE with different concentrations for electrophoresis, and then transfer to PVDF membrane (Millipore Immobilon-P, Burlington, MA, USA). Incubate the antibody imprint overnight at 4°C, and then incubate with HRP conjugated secondary antibody for 1 h.

[3] = system: ASC; assay: ASC spot immunofluorescence experiment in BMDM cells; type: cell-based, mouse; settings: LPS and Nigericin, concentration-dependent
Excerpt: The formation of ASC oligomers is a key hallmark of inflammasome activation. ASC forms interactions with other ASC molecules through its pyrin domain (PYD), which leads to the aggregation of these molecules, resulting in the formation of a speck-like structure (ASC specks). This process involves not only the aggregation of proteins but also the assembly of a highly ordered structure in the cytoplasm. Inhibition of ASC oligomerization can effectively block NLRP3 inflammasome activation. […] Therefore, we hypothesize that F14 may inhibit caspase-1 activation by interfering with ASC oligomerization or ASC speck formation. To validate this hypothesis, we conducted immunofluorescence experiments in BMDM cells under inflammatory conditions.
Add the BMDM cells into a 24-well plate with a cell density of 3 × 10^5 cells per well. Add LPS (200 ng/mL) to all wells except the blank wells to stimulate the cells for 3 h, then add the F14 to the experimental group and incubate for 1 h, followed by Nigericin stimulation for 30 min. Add 500 μL of FAA fixation solution to each well, incubate with 1% TritonX-100 solution for 15 min, then block with 5% BSA solution. Add an appropriate amount of primary antibody and incubate overnight, wash, then add the secondary antibody for incubation. […]

[4] = system: DSS-induced acute colitis; assay: DSS-induced acute colitis in mice; type: in vivo, mouse; settings: 10 and 20 mg/kg daily, gavage
Protocol: To further validate the in vivo biological activity of compound F14, we used the DSS-induced mouse colitis model to assess its anti-inflammatory effects. The experimental design was as follows: mice were divided into the normal group, model group (DSS), positive control group (DSS + sulfasalazine), low-dose group (DSS + 10 mg/kg), and high-dose group (DSS + 20 mg/kg). Mice in the normal group were given regular water with no treatment; the positive control group received sulfasalazine as the positive drug at a daily dose of 200 mg/kg; the low-dose and high-dose groups were administered 10 mg/kg and 20 mg/kg of F14, respectively, each day. During the experiment, acute colitis in mice was induced by drinking water containing 3% DSS […]. The mice’s body weight changes, fecal blood presence, and disease activity index (DAI) were recorded daily. […] Goblet cells are a type of colon epithelial cell, and their primary function is to secrete mucus, which helps maintain the stability of the intestinal environment. During the pathological process of colitis, the number of goblet cells decreased, and their mucus-secreting function was impaired. In histological examinations, the number and secretion function of goblet cells are important indicators of colitis.
Male C57BL/6 mice, 18–20 g, were purchased from Charles River (China). All experiments and animal care procedures were approved by the Animal Resource Center of Anhui Medical University by the National Institutes of Health Guide for the Care and Use of Laboratory Animals (20230875). This study used DSS induction to establish an acute colitis model in mice. Mice in the experimental group were given free access to a 3% DSS solution for 7 days to induce an intestinal inflammation phenotype. The positive control group (sulfasalazine, 200 mg/kg) and the treatment group were gavage administration daily, using a 0.5% carboxymethyl cellulose sodium (CMC-Na) solution as the drug vehicle. The normal control and model groups received an equal volume of blank CMC-Na solution. Daily monitoring of weight changes and clinical symptoms was performed during the experimental period, including fecal characteristics (formed/loose/watery stools) and the degree of rectal bleeding (occult blood/gross blood in feces). On day 10, at the end of the experiment, the colonic sections of the mice were carefully excised. The excised colon was examined, and the length of the colon was measured. Some colon tissues were fixed in 4% formaldehyde and used for HE staining and immunohistochemical analysis for subsequent evaluations.

Cc1ccc(C(=O)/C=C/c2cccc(O)c2)c(C)c1 [Compound F14, (E)-1-(2,4-dimethylphenyl)-3-(3-hydroxyphenyl)propyl-2-en-1-one]
inhibition at 20 µM ([1]; 20 µM, LPS/nigericin-treated BMDM cells, mean ± S.E.M. (n = 3), read-out: IL-1β Inhibition Rate (%)): 95.4 ± 2.56%
IC50 ([1]; BMDM, LPS/nigericin, three independent experiments, read-out: IL-1β release IC50 in BMDMs): 740 nM
protein expression levels of pro-IL-1β, pro-caspase-1, ASC, NEK7 and NLRP3 [2]: no significant effect
protein levels of IL-1β and caspase-1 in the cell supernatant [2]: concentration-dependent inhibitory effect
ASC speckles [3]: significant reduction
colonic adhesion ([4]; DSS mice): effectively alleviated
goblet cells in colon tissue (histology) ([4]; DSS mice): inhibits the reduction
disease activity index (DAI) ([4]; vs model group (DSS)): inhibits the increase
weight loss in mice ([4]; vs model group (DSS)): significantly alleviates
